This experiment concerns MV-4-11 cells. Nature of the experiment: Gene expression microarray analysis (Affymetrix PrimeView) and GSEA. The experiment is classed as cell-based, human. Details: RFU PODN (11730768_x_at) / Fold change /veh PODN (11730768_x_at) / RFU LINC00158 (11744669_a_at) / Fold change /veh LINC00158 (11744669_a_at) / RFU DUSP10 (11751237_a_at) / Fold change /veh DUSP10 (11751237_a_at) / RFU ID3 (11757404_x_at) / Fold change /veh ID3 (11757404_x_at) / RFU PLEKHG5 (11737974_s_at) / Fold change /veh PLEKHG5 (11737974_s_at) / RFU LRRC4B (11730491_at) / Fold change /veh LRRC4B (11730491_at) / RFU GIMAP4 (11747438_a_at) / Fold change /veh GIMAP4 (11747438_a_at) / RFU KRT8 (11758183_x_at) / Fold change /veh KRT8 (11758183_x_at) / RFU CNN1 (11734310_a_at) / Fold change /veh CNN1 (11734310_a_at) / RFU VPS37D (11726825_at) / Fold change /veh VPS37D (11726825_at) / RFU C10orf10 (11716522_x_at) / Fold change /veh C10orf10 (11716522_x_at) / RFU KIR2DL2 /// KIR2DL4 /// KIR2DL5A /// KIR2DL5B /// KIR2DS1 /// KIR2DS2 /// KIR2DS3 /// KIR2DS4 /// KIR3DL3 /// KIR3DL3 /// KIR3DS1 (11738374_at) / Fold change /veh KIR2DL2 /// KIR2DL4 /// KIR2DL5A /// KIR2DL5B /// KIR2DS1 /// KIR2DS2 /// KIR2DS3 /// KIR2DS4 /// KIR3DL3 /// KIR3DL3 /// KIR3DS1 (11738374_at) / RFU C1QL1 (11718748_at) / Fold change /veh C1QL1 (11718748_at) / RFU TMPRSS4 (11747572_a_at) / Fold change /veh TMPRSS4 (11747572_a_at) / RFU HAMP (11756126_x_at) / Fold change /veh HAMP (11756126_x_at) / RFU RNFT2 (11725882_a_at) / Fold change /veh RNFT2 (11725882_a_at) / RFU NR4A2 (11747474_a_at) / Fold change /veh NR4A2 (11747474_a_at) / RFU ABCC12 (11746883_a_at) / Fold change /veh ABCC12 (11746883_a_at) / RFU TMEM136 (11760407_x_at) / Fold change /veh TMEM136 (11760407_x_at) / RFU CLDN22 /// WWC2 (11732394_at) / Fold change /veh CLDN22 /// WWC2 (11732394_at) / RFU HLA-DPB1 (11760878_x_at) / Fold change /veh HLA-DPB1 (11760878_x_at) / RFU SPINT1 (11716480_a_at) / Fold change /veh SPINT1 (11716480_a_at) / RFU GAP43 (11754022_s_at) / Fold change /veh GAP43 (11754022_s_at) / RFU A4GNT (11735810_at) / Fold change /veh A4GNT (11735810_at) / RFU PRB3 (11715151_x_at) / Fold change /veh PRB3 (11715151_x_at) / RFU TUBB4B (11761932_at) / Fold change /veh TUBB4B (11761932_at) / RFU CAPN14 (11732068_a_at) / Fold change /veh CAPN14 (11732068_a_at) / RFU TMCC2 (11721928_a_at) / Fold change /veh TMCC2 (11721928_a_at) / RFU IRGQ (11745062_a_at) / Fold change /veh IRGQ (11745062_a_at) / RFU FAM174B (11720279_a_at) / Fold change /veh FAM174B (11720279_a_at) / RFU TMPRSS4 (11748680_a_at) / Fold change /veh TMPRSS4 (11748680_a_at) / RFU FAM212B (11763350_a_at) / Fold change /veh FAM212B (11763350_a_at) / RFU PLEKHG5 (11743358_a_at) / Fold change /veh PLEKHG5 (11743358_a_at) / RFU ZSCAN30 (11745921_a_at) / Fold change /veh ZSCAN30 (11745921_a_at) / RFU CMKLR1 (11741424_a_at) / Fold change /veh CMKLR1 (11741424_a_at) / RFU LOC101060620 /// MAPK8IP1 (11723275_at) / Fold change /veh LOC101060620 /// MAPK8IP1 (11723275_at) / RFU SPTSSB (11747773_x_at) / Fold change /veh SPTSSB (11747773_x_at) / RFU PRSS12 (11739890_at) / Fold change /veh PRSS12 (11739890_at) / RFU BIN1 (11741810_x_at) / Fold change /veh BIN1 (11741810_x_at) / RFU WNT11 (11732464_a_at) / Fold change /veh WNT11 (11732464_a_at) / RFU C10orf10 (11716521_a_at) / Fold change /veh C10orf10 (11716521_a_at) / RFU C5orf56 (11738089_at) / Fold change /veh C5orf56 (11738089_at) / RFU CYB561 (11721691_x_at) / Fold change /veh CYB561 (11721691_x_at) / RFU ANKRD19P (11752326_a_at) / Fold change /veh ANKRD19P (11752326_a_at) / RFU OR2T12 /// OR2T33 /// OR2T8 (11738714_s_at) / Fold change /veh OR2T12 /// OR2T33 /// OR2T8 (11738714_s_at) / RFU VCAN (11748164_a_at) / Fold change /veh VCAN (11748164_a_at) / RFU JSRP1 (11732532_at) / Fold change /veh JSRP1 (11732532_at) / RFU KRTAP10-11 (11738290_x_at) / Fold change /veh KRTAP10-11 (11738290_x_at) / RFU MYO3A (11730013_a_at) / Fold change /veh MYO3A (11730013_a_at) / RFU EBF3 (11725865_a_at) / Fold change /veh EBF3 (11725865_a_at) / RFU CAMK2N1 (11719241_x_at) / Fold change /veh CAMK2N1 (11719241_x_at) / RFU C5orf56 (11738088_a_at) / Fold change /veh C5orf56 (11738088_a_at) / RFU OLFML3 (11715873_a_at) / Fold change /veh OLFML3 (11715873_a_at) / RFU LOC100653217 /// NTM (11731650_a_at) / Fold change /veh LOC100653217 /// NTM (11731650_a_at) / RFU MAPK11 (11762145_a_at) / Fold change /veh MAPK11 (11762145_a_at) / RFU FIZ1 (11724087_x_at) / Fold change /veh FIZ1 (11724087_x_at) / RFU OASL (11726364_x_at) / Fold change /veh OASL (11726364_x_at) / RFU SOX15 (11748057_x_at) / Fold change /veh SOX15 (11748057_x_at) / RFU CD79A (11719716_a_at) / Fold change /veh CD79A (11719716_a_at) / RFU HIST1H1D (11736915_at) / Fold change /veh HIST1H1D (11736915_at) / RFU CASKIN2 (11723855_a_at) / Fold change /veh CASKIN2 (11723855_a_at) / RFU LOC730098 (11760151_x_at) / Fold change /veh LOC730098 (11760151_x_at) / RFU OR4N2 (11742367_at) / Fold change /veh OR4N2 (11742367_at) / RFU PRRT2 (11749266_a_at) / Fold change /veh PRRT2 (11749266_a_at) / RFU SNX32 (11753110_a_at) / Fold change /veh SNX32 (11753110_a_at) / RFU CDHR5 (11726645_a_at) / Fold change /veh CDHR5 (11726645_a_at) / RFU RCAN1 (11760418_a_at) / Fold change /veh RCAN1 (11760418_a_at) / RFU FAM167A (11723789_a_at) / Fold change /veh FAM167A (11723789_a_at) / RFU FAM26E (11764081_at) / Fold change /veh FAM26E (11764081_at) / RFU ISYNA1 (11749810_s_at) / Fold change /veh ISYNA1 (11749810_s_at) / RFU ACY1 (11761880_at) / Fold change /veh ACY1 (11761880_at) / RFU 11764098_at / Fold change /veh 11764098_at / RFU SAMD14 (11745864_x_at) / Fold change /veh SAMD14 (11745864_x_at) / RFU NPB (11741838_a_at) / Fold change /veh NPB (11741838_a_at) / RFU TMPRSS6 (11731388_a_at) / Fold change /veh TMPRSS6 (11731388_a_at) / RFU KRTAP10-2 (11738614_at) / Fold change /veh KRTAP10-2 (11738614_at) / RFU ARHGAP8 /// PRR5-ARHGAP8 (11727945_x_at) / Fold change /veh ARHGAP8 /// PRR5-ARHGAP8 (11727945_x_at) / RFU KRTAP5-7 /// NADSYN1 (11734609_at) / Fold change /veh KRTAP5-7 /// NADSYN1 (11734609_at) / RFU RASL12 (11751679_a_at) / Fold change /veh RASL12 (11751679_a_at) / RFU CDKN2B (11736163_a_at) / Fold change /veh CDKN2B (11736163_a_at) / RFU PRF1 (11729649_at) / Fold change /veh PRF1 (11729649_at) / RFU, ZNF638 /// ZNF638-IT1 / Fold change vs veh, ZNF638 /// ZNF638-IT1 / RFU, PANK3 / Fold change vs veh, PANK3 / RFU, SH3YL1 / Fold change vs veh, SH3YL1 / RFU, ZEB2 / Fold change vs veh, ZEB2 / RFU, NRIP1 / Fold change vs veh, NRIP1 / RFU, PTTG1IP / Fold change vs veh, PTTG1IP / RFU, CAPN2 / Fold change vs veh, CAPN2 / RFU, MED14 / Fold change vs veh, MED14 / RFU, SNORA58 / Fold change vs veh, SNORA58 / RFU, C1orf63 / Fold change vs veh, C1orf63 / RFU, LRRFIP1 / Fold change vs veh, LRRFIP1 / RFU, NDUFAF7 / Fold change vs veh, NDUFAF7 / RFU, SLC12A2 / Fold change vs veh, SLC12A2 / RFU, IBTK / Fold change vs veh, IBTK / RFU, ESF1 / Fold change vs veh, ESF1 / Fold change vs veh, TMEM50B / RFU, TAOK1 / Fold change vs veh, TAOK1 / RFU, ACBD3 / Fold change vs veh, ACBD3 / RFU, TMA16 / Fold change vs veh, TMA16 / RFU, RWDD3 / Fold change vs veh, RWDD3 / RFU, BCAT1 / Fold change vs veh, BCAT1 / RFU, EDEM3 / Fold change vs veh, EDEM3 / RFU, TMEM33 / Fold change vs veh, TMEM33 / RFU, WDR75 / Fold change vs veh, WDR75 / RFU, AHCTF1 / Fold change vs veh, AHCTF1 / RFU, TFRC / Fold change vs veh, TFRC / RFU, ZDHHC17 / Fold change vs veh, ZDHHC17 / RFU, NOM1 / Fold change vs veh, NOM1 / RFU, ARL8B / Fold change vs veh, ARL8B / RFU, ZBTB11 / Fold change vs veh, ZBTB11 / RFU, TAMM41 / Fold change vs veh, TAMM41 / RFU, KIAA1704 /// LOC100996395 / Fold change vs veh, KIAA1704 /// LOC100996395 / RFU, ING1 / Fold change vs veh, ING1 / RFU, TRMT61B / Fold change vs veh, TRMT61B / RFU, FUBP3 / Fold change vs veh, FUBP3 / RFU, TP53 / Fold change vs veh, TP53 / RFU, TNKS2 / Fold change vs veh, TNKS2 / RFU, ZFP14 / Fold change vs veh, ZFP14 / RFU, ACTR2 / Fold change vs veh, ACTR2 / RFU, PPP3R1 / Fold change vs veh, PPP3R1 / RFU, PIK3R1 / Fold change vs veh, PIK3R1 / RFU, HNRNPA1 / Fold change vs veh, HNRNPA1 / RFU, RNF170 / Fold change vs veh, RNF170 / RFU, ZNF28 / Fold change vs veh, ZNF28 / RFU, RNGTT / Fold change vs veh, RNGTT / RFU, OGT / Fold change vs veh, OGT / RFU, BRD1 / Fold change vs veh, BRD1 / RFU, MARS / Fold change vs veh, MARS / RFU, ZNF655 / Fold change vs veh, ZNF655 / RFU, FAHD1 / Fold change vs veh, FAHD1 / RFU, BDP1 / Fold change vs veh, BDP1 / RFU, LRRCC1 / Fold change vs veh, LRRCC1 / RFU, ARID1A / Fold change vs veh, ARID1A / RFU, ZNF146 / Fold change vs veh, ZNF146 / RFU, ZNF330 / Fold change vs veh, ZNF330 / RFU, GPN3 / Fold change vs veh, GPN3 / RFU, C9orf123 / Fold change vs veh, C9orf123 / RFU, N4BP2L2 / Fold change vs veh, N4BP2L2 / RFU, ARFIP1 / Fold change vs veh, ARFIP1 / RFU, FAM179B / Fold change vs veh, FAM179B / RFU, BCL10 / Fold change vs veh, BCL10 / RFU, UHRF1BP1L / Fold change vs veh, UHRF1BP1L / RFU, BET1 / Fold change vs veh, BET1 / RFU, CNOT2 / Fold change vs veh, CNOT2 / RFU, ZNF268 / Fold change vs veh, ZNF268 / Fold change vs veh, ZNF507 / RFU, DGCR2 / Fold change vs veh, DGCR2 / RFU, WDSUB1 / Fold change vs veh, WDSUB1 / Fold change vs veh, HSP90B1 /// MIR3652 / RFU, ADSS / Fold change vs veh, ADSS / RFU, GK / Fold change vs veh, GK / RFU, ZNF148 / Fold change vs veh, ZNF148 / RFU, TAF9 / Fold change vs veh, TAF9 / RFU, SLC1A5 / Fold change vs veh, SLC1A5 / RFU, SLMO2 / Fold change vs veh, SLMO2 / RFU, ABCC4 / Fold change vs veh, ABCC4 / RFU, LOC101060439 /// RAP1B / Fold change vs veh, LOC101060439 /// RAP1B / RFU, RFX7 / Fold change vs veh, RFX7 / RFU, GTPBP10 / Fold change vs veh, GTPBP10 / RFU, CNEP1R1 / Fold change vs veh, CNEP1R1 / RFU, BIVM-ERCC5 /// ERCC5 / Fold change vs veh, BIVM-ERCC5 /// ERCC5 / RFU, ILF3 / Fold change vs veh, ILF3 / RFU 11762660_at / Fold change /veh 11762660_at / RFU VCAN (11757783_s_at) / Fold change /veh VCAN (11757783_s_at) / RFU DDX43 (11728927_at) / Fold change /veh DDX43 (11728927_at) / RFU KRT8 (11758188_x_at) / Fold change /veh KRT8 (11758188_x_at) / RFU NKD1 (11759106_at) / Fold change /veh NKD1 (11759106_at) / RFU SRD5A1 (11742802_a_at) / Fold change /veh SRD5A1 (11742802_a_at) / RFU TPSAB1 /// TPSB2 (11721975_s_at) / Fold change /veh TPSAB1 /// TPSB2 (11721975_s_at) / RFU GSTM3 (11746129_a_at) / Fold change /veh GSTM3 (11746129_a_at) / RFU IL23R (11737362_x_at) / Fold change /veh IL23R (11737362_x_at) / RFU TMEM51 (11727254_a_at) / Fold change /veh TMEM51 (11727254_a_at) / RFU PIWIL2 (11732686_x_at) / Fold change /veh PIWIL2 (11732686_x_at) / RFU ORM1 (11744905_x_at) / Fold change /veh ORM1 (11744905_x_at) / RFU CCDC152 (11743942_at) / Fold change /veh CCDC152 (11743942_at) / RFU ECM1 (11717891_a_at) / Fold change /veh ECM1 (11717891_a_at) / RFU IL23R (11748794_a_at) / Fold change /veh IL23R (11748794_a_at) / RFU TNFAIP8L3 (11732012_x_at) / Fold change /veh TNFAIP8L3 (11732012_x_at) / RFU MBOAT4 (11741988_at) / Fold change /veh MBOAT4 (11741988_at) / RFU 11764193_at / Fold change /veh 11764193_at / RFU TMEM53 (11763286_at) / Fold change /veh TMEM53 (11763286_at) / RFU MAGEB2 (11727129_at) / Fold change /veh MAGEB2 (11727129_at) / RFU TMEM200A (11744735_a_at) / Fold change /veh TMEM200A (11744735_a_at) / RFU CCDC152 (11751479_a_at) / Fold change /veh CCDC152 (11751479_a_at) / RFU FAM211A (11726209_a_at) / Fold change /veh FAM211A (11726209_a_at) / RFU RGS16 (11746705_a_at) / Fold change /veh RGS16 (11746705_a_at) / RFU VCAN (11755009_s_at) / Fold change /veh VCAN (11755009_s_at) / RFU RHOB (11743442_s_at) / Fold change /veh RHOB (11743442_s_at) / RFU RGS16 (11720943_a_at) / Fold change /veh RGS16 (11720943_a_at) / RFU RGS16 (11720944_at) / Fold change /veh RGS16 (11720944_at) / RFU, VPS4B / Fold change vs veh, VPS4B / RFU, CREB1 / Fold change vs veh, CREB1 / RFU, DNAJC13 / Fold change vs veh, DNAJC13 / RFU, GNAQ / Fold change vs veh, GNAQ / RFU, CDK5R1 / Fold change vs veh, CDK5R1 / RFU, ZRANB3 / Fold change vs veh, ZRANB3 / RFU, CUL4A / Fold change vs veh, CUL4A / RFU, CCNY / Fold change vs veh, CCNY / RFU, UFL1 / Fold change vs veh, UFL1 / RFU, COG3 / Fold change vs veh, COG3 / RFU, DIAPH2 / Fold change vs veh, DIAPH2 / RFU, SKA2 / Fold change vs veh, SKA2 / RFU, AFF3 / Fold change vs veh, AFF3 / RFU, LMF1 / Fold change vs veh, LMF1 / RFU, IPO11 / Fold change vs veh, IPO11 / RFU, DFFB / Fold change vs veh, DFFB / RFU, FOXP1 / Fold change vs veh, FOXP1 / RFU, CARD8 / Fold change vs veh, CARD8 / RFU, STRN3 / Fold change vs veh, STRN3 / RFU, ADK / Fold change vs veh, ADK / RFU, RASSF2 / Fold change vs veh, RASSF2 / RFU, WIPF1 / Fold change vs veh, WIPF1 / RFU, LARP1B / Fold change vs veh, LARP1B / RFU, RASA1 / Fold change vs veh, RASA1 / RFU, RB1 / Fold change vs veh, RB1 / RFU, PPFIA1 / Fold change vs veh, PPFIA1 / RFU, MAT2A / Fold change vs veh, MAT2A / RFU, CCT5 / Fold change vs veh, CCT5 / RFU, WDR92 / Fold change vs veh, WDR92 / RFU, CUX1 / Fold change vs veh, CUX1 / RFU, TTC7A / Fold change vs veh, TTC7A / RFU, TMEM135 / Fold change vs veh, TMEM135 / RFU, DEPTOR / Fold change vs veh, DEPTOR / RFU, CPM / Fold change vs veh, CPM / RFU, DNAJB6 / Fold change vs veh, DNAJB6 / RFU, CACNA2D3 / Fold change vs veh, CACNA2D3 / RFU, DTX4 / Fold change vs veh, DTX4 / RFU, TFCP2 / Fold change vs veh, TFCP2 / RFU, GMCL1 /// GMCL1P1 / Fold change vs veh, GMCL1 /// GMCL1P1 / RFU, AEBP2 / Fold change vs veh, AEBP2 / RFU, SNHG1 /// SNORD22 /// SNORD25 /// SNORD26 /// SNORD27 /// SNORD28 /// SNORD29 /// SNORD31 / Fold change vs veh, SNHG1 /// SNORD22 /// SNORD25 /// SNORD26 /// SNORD27 /// SNORD28 /// SNORD29 /// SNORD31 / Fold change (Aza/veh), C12orf56 (ProbeSet 11735607_a_at) / Fold change (ACY-1035/veh), C12orf56 (ProbeSet 11735607_a_at) / Fold change (Aza/veh), FGFR1OP (ProbeSet 11751329_s_at) / Fold change (ACY-1035/veh), FGFR1OP (ProbeSet 11751329_s_at) / Fold change (Aza/veh), VPS36 (ProbeSet 11739960_a_at) / Fold change (ACY-1035/veh), VPS36 (ProbeSet 11739960_a_at) / RFU SYPL1 (11715823_x_at) / Fold change /veh SYPL1 (11715823_x_at) / RFU IGFBP7 (11715501_s_at) / Fold change /veh IGFBP7 (11715501_s_at) / RFU REEP3 (11722064_at) / Fold change /veh REEP3 (11722064_at) / RFU IGLL1 (11728026_x_at) / Fold change /veh IGLL1 (11728026_x_at): dose or concentration left out as unconfirmed. Conditions: ProbeSet 11745260_x_at; LIST B.

The values that follow come from article PMC5218480 (PLoS ONE, 2017).

With `Nc1ncn([C@@H]2O[C@H](CO)[C@@H](O)[C@H]2O)c(=O)n1` [azacitidine], the “RFU, SLC12A2” value came to 29.09 RFU.
